Test results from patent US4550101A, “Iron complexes of hydroxy pyridones useful for treating iron deficiency anemia” (priority 1982, dated 1985).
Where two headings read alike, the source gives them in different places.

Key:
[1] = Partition between n-octanol and aqueous tris hydrochloride (Kpart); type: physicochemical; details: for Partition Coefficient, Kpart, Iron complex [Fe^III-(compound)3]: 100 µM
Procedure: Acid washed glassware is used throughout and, following mixing of 5 ml of the 10^-4 M aqueous solution with 5 ml of n-octanol for 1 minute, the aqueous n-octanol mixture is centrifuged at 1,000 g for 30 seconds. The two resulting phases are separated for a concentration determination by spectrophotometry on each.

cat intestine [2] = details: in vivo
Procedure: (§1) The total ^59 Fe present in the kidneys and urine was then measured in each case.
(§2) As well as the kidneys, various other tissues of the cat which recieved the Fe(III) 1-ethyl-3-hydroxypyrid-2-one were studied to assess the percentage of the original ^59 Fe dose which was present.

human erythrocytes [3] = details: pH 7.4
Procedure: (§3) Following this period of incubation, an aliquot of the erythrocyte/medium mixture was placed above a layer of silcone oil and the erythrocytes separated by centrifugation through the oil. The ^59 Fe levels associated with the erythrocytes and the incubation medium were then counted.

rat jejunal sac = experiment: Iron uptake into the serosal space of the inverted rat jejunal sac
Procedure: Rats (male Sprague Dawley, 60 g) were killed and the jejunum removed, everted and cut into three segments (4 cm length). The segments were tied at both ends and filled with Krebs Ringer buffer (0.2 ml) and incubated in Krebs Ringer buffer containing ^59 Fe complexes at 37° C. for periods up to 1 hour. The contents of the sac were counted for ^59 Fe and measured spectrophotometrically.

[4] = Clearance and tissue distribution of 59Fe after intravenous injection in the cat; type: in vivo
Excerpt: as §2

cat intestine [5] = experiment: In vivo permeability of cat intestine towards iron complexes: 59Fe in blood, kidneys, urine and tissues after administration into the small intestine; details: for Concentration of [59Fe] in blood: 1 mg iron, pyridone complex with 20-fold excess of free pyridone
Procedure: as §1, §2

apotransferrin = experiment: Ability of iron complexes to donate iron to apotransferrin; type: biochemical; details: within 10 minutes, 37° C., pH 7.4, 10^-4 M complex, 10^-4 M apotransferrin
Procedure: At 10, 20, 30 and 60 minute intervals 1 ml aliquots were removed from the media and added to a PD10 colum. 0.5 ml fractions were collected directly into scintillation vials for counting. The ^59 Fe associated with both the apotransferrin and the ligand was estimated as a function of time. […] Thus, although both the 3-hydroxypyrid-2-ones and the 3-hydroxypyrid-4-ones are able to denote iron to apotransferrin, the former are the more efficient.

human erythrocytes [6] = experiment: Accumulation of iron complexes by human erythrocytes; details: 1 hour, 37° C., pH 7.4, 10^-3 M complex, 5% erythrocyte suspension; mean of at least three determinations
Procedure: as §3

[7] = n-octanol/tris hydrochloride, pH 7.4
[8] = relative to ferric chloride as 1, 37° C., up to 1 hour
[9] = n-octanol / 20 mM tris hydrochloride pH 7.4, 20° C., 10^-4 M, read-out: Partition Coefficient, Kpart, Free Compound (converted)

Question: Which logD at 100 µM [1, 7] does the source give for `Cc1c(O)c(=O)ccn1C` [3-hydroxy-1,2-dimethylpyrid-4-one] here?
Answer: Its logD at 100 µM is -0.678.

Question: With `O=C([O-])CN(CCN(CC(=O)[O-])CC(=O)[O-])CC(=O)[O-].[Fe+3]` [Fe^III EDTA, iron (III) EDTA] as the compound, how does the “percentage of the total dose in the urine” value (cat intestine [2]; cat, 4 h) read?
Answer: The value was 21%.

Question: What about the “clearance into the urine” value (cat intestine [2]) of the same compound?
Answer: The value was “cleared rapidly into the urine”.

Question: Which “Amount of complex entering erythrocytes” value (human erythrocytes [3]) does the source give for `CC(C)n1cccc([O-])c1=O.CC(C)n1cccc([O-])c1=O.CC(C)n1cccc([O-])c1=O.[Fe+3]` [3:1 iron (III) complex of 3-hydroxy-1-(1'-methylethyl)pyrid-2-one] here?
Answer: Its value is 770 n.mole.

Question: And the “Partition Coefficient, Kpart, Iron complex [Fe^III-(compound)3]” value (“Partition Coefficient, Kpart” for short) [1, 7]?
Answer: The value was 13.50.

Question: With `CCCn1cccc(O)c1=O` [3-hydroxy-1-propylpyrid-2-one] as the compound, how does the logD at 100 µM [1, 7] read?
Answer: The logD at 100 µM was -0.108.

Question: For `CCCn1ccc(=O)c([O-])c1C.CCCn1ccc(=O)c([O-])c1C.CCCn1ccc(=O)c([O-])c1C.[Fe+3]` [3:1 iron (III) complex of 3-hydroxy-2-methyl-1-propylpyrid-4-one], which “Amount of complex entering erythrocytes” value (human erythrocytes [3]) is on record?
Answer: The value was 53 n.mole.

Question: Which results are given for `O=C1O[C@H]([C@@H](O)CO)C(O)=C1O` [Fe^III ascorbate, iron (III) ascorbate, reference compound]?
Answer: Relative Iron Uptake (rat jejunal sac; [8]): 0.4; logD at 100 µM [1, 7]: -2.82

Question: With `CCCCn1ccc(=O)c(O)c1C` [1-butyl-3-hydroxy-2-methylpyrid-4-one, 1-Butyl-3-hydroxy-2-methylpyrid-4-one] as the compound, how does the logD at 100 µM [1, 9] read?
Answer: The logD at 100 µM was 0.724.

Question: What does the source list for `Cc1c([O-])c(=O)ccn1C(C)C.Cc1c([O-])c(=O)ccn1C(C)C.Cc1c([O-])c(=O)ccn1C(C)C.[Fe+3]` [3:1 iron (III) complex of 3-hydroxy-1-(1'-methylethyl)-2-methylpyrid-4-one]?
Answer: Amount of complex entering erythrocytes (human erythrocytes [3]): 22 n.mole; Partition Coefficient, Kpart, Iron complex [Fe^III-(compound)3] [1, 7]: 0.20

Question: With `CCCCn1ccc(=O)c([O-])c1C.CCCCn1ccc(=O)c([O-])c1C.CCCCn1ccc(=O)c([O-])c1C.[Fe+3]` [3:1 iron (III) complex of 1-butyl-3-hydroxy-2-methylpyrid-4-one] as the compound, how does the “Amount of complex entering erythrocytes” value (human erythrocytes [3]) read?
Answer: The value was 1630 n.mole.

Question: And the “Partition Coefficient, Kpart” value [1, 7]?
Answer: Its value is 7.70.

Question: With `CCn1cccc(O)c1=O` [1-ethyl-3-hydroxypyrid-2-one] as the compound, how does the logD at 100 µM [1, 7] read?
Answer: The logD at 100 µM was -0.284.

Question: For `CCn1ccc(=O)c(O)c1C` [1-ethyl-3-hydroxy-2-methylpyrid-4-one, 1-Ethyl-3-hydroxy-2-methylpyrid-4-one], which logD at 100 µM [1, 9] is on record?
Answer: Its logD at 100 µM is -0.398.

Question: For `[Cl][Fe]([Cl])[Cl]` [FeCl3, ferric chloride], which “Relative Iron Uptake” value (rat jejunal sac) is on record?
Answer: Its value is 1.

Question: With `Cc1c([O-])c(=O)ccn1C.Cc1c([O-])c(=O)ccn1C.Cc1c([O-])c(=O)ccn1C.[Fe+3]` [3:1 iron (III) complex of 3-hydroxy-1,2-dimethylpyrid-4-one] as the compound, how does the “Amount of complex entering erythrocytes” value (human erythrocytes [3]) read?
Answer: The value was 25 n.mole.

Question: What about the “Partition Coefficient, Kpart” value [1, 7] of the same compound?
Answer: The value was 0.05.

Question: With `CCn1cccc([O-])c1=O.CCn1cccc([O-])c1=O.CCn1cccc([O-])c1=O.[Fe+3]` [iron complex of 1-ethyl-3-hydroxypyrid-2-one] as the compound, how does the “dose appearing in the urine” value [4] read?
Answer: Its value is “less than 1%”.

Question: What about the “half life of clearance from the circulation” value [4] of the same compound?
Answer: The value was 45 min.

Question: What about the “Percentage of original 59Fe dose, Blood” value ([4]; after 4 hours) of the same compound?
Answer: Its value is 7%.

Question: And the “Percentage of original 59Fe dose, Heart” value ([4]; after 4 hours)?
Answer: The value was 1.1%.

Question: And the “Percentage of original 59Fe dose, Kidneys” value ([4]; after 4 hours)?
Answer: The value was 1%.

Question: And the “Percentage of original 59Fe dose, Liver” value ([4]; after 4 hours)?
Answer: The value was 5.3%.

Question: What about the “Percentage of original 59Fe dose, Skeletal Muscle” value ([4]; after 4 hours) of the same compound?
Answer: Its value is 0.5%.

Question: And the “Percentage of original 59Fe dose, Spleen” value ([4]; after 4 hours)?
Answer: Its value is 0.7%.

Question: What about the “Percentage of original 59Fe dose, Urine” value ([4]; after 4 hours) of the same compound?
Answer: Its value is 0.5%.

Question: What about the “Percentage of original 59Fe dose, Reticuloendothelial System (Bone Marrow)” value ([4]; after 4 hours, estimated) of the same compound?
Answer: Its value is about 80%.

Question: And the “Concentration of [59Fe] in blood” value (cat intestine [5]; 20 minutes after administration into small intestine)?
Answer: The value was 200 c.p.m.

Question: And the “Concentration of [59Fe] in blood” value (cat intestine [5]; 40 minutes after administration into small intestine)?
Answer: The value was 475 c.p.m.

Question: What about the “Concentration of [59Fe] in blood” value (cat intestine [5]; 60 minutes after administration into small intestine) of the same compound?
Answer: Its value is 643 c.p.m.

Question: What about the “Concentration of [59Fe] in blood” value (cat intestine [5]; 80 minutes after administration into small intestine) of the same compound?
Answer: The value was 661 c.p.m.

Question: What about the “Concentration of [59Fe] in blood” value (cat intestine [5]; 100 minutes after administration into small intestine) of the same compound?
Answer: Its value is 784 c.p.m.

Question: What about the “Concentration of [59Fe] in blood” value (cat intestine [5]; 120 minutes after administration into small intestine) of the same compound?
Answer: Its value is 870 c.p.m.

Question: And the “Concentration of [59Fe] in blood” value (cat intestine [5]; 140 minutes after administration into small intestine)?
Answer: Its value is 834 c.p.m.

Question: What about the “Concentration of [59Fe] in blood” value (cat intestine [5]; 160 minutes after administration into small intestine) of the same compound?
Answer: The value was 750 c.p.m.

Question: And the “Concentration of [59Fe] in blood” value (cat intestine [5]; 180 minutes after administration into small intestine)?
Answer: The value was 900 c.p.m.

Question: And the “clearance into the urine” value (cat intestine [5]; 4 hours, into small intestine)?
Answer: Its value is “very slow”.

Question: And the “percentage of the total dose in the kidneys” value (cat intestine [5]; 4 hours, into small intestine)?
Answer: Its value is 0.05%.

Question: And the “percentage of the total dose in the urine” value (cat intestine [5]; 4 hours, into small intestine)?
Answer: The value was “no more than 0.01%”.

Question: And the “Concentration of [59Fe] in blood” value (cat intestine [5]; 240 minutes after administration into small intestine)?
Answer: Its value is 948 c.p.m.

Question: And the “59Fe in the sternum” value (cat intestine [5]; confirms reticuloendothelial system (bone marrow))?
Answer: Its value is “high levels of ^59 Fe in the sternum”.

Question: What about the “distribution of the iron in the body” value (cat intestine [5]; intrajejunal) of the same compound?
Answer: The value was “widely distributed throughout the body”.

Question: And the “Percentage of original 59Fe dose, Blood” value (cat intestine [5]; intrajejunal, after 4 hours)?
Answer: Its value is 3%.

Question: What about the “Percentage of original 59Fe dose, Heart” value (cat intestine [5]; intrajejunal, after 4 hours) of the same compound?
Answer: The value was 1.5%.

Question: And the “Percentage of original 59Fe dose, Intestinal Tissue” value (cat intestine [5]; intrajejunal, after 4 hours)?
Answer: Its value is 30%.

Question: What about the “Percentage of original 59Fe dose, Kidneys” value (cat intestine [5]; intrajejunal, after 4 hours) of the same compound?
Answer: The value was 0.05%.

Question: And the “Percentage of original 59Fe dose, Liver” value (cat intestine [5]; intrajejunal, after 4 hours)?
Answer: Its value is 1.6%.

Question: And the “Percentage of original 59Fe dose, Skeletal Muscle” value (cat intestine [5]; intrajejunal, after 4 hours)?
Answer: Its value is 0.8%.

Question: What about the “Percentage of original 59Fe dose, Spleen” value (cat intestine [5]; intrajejunal, after 4 hours) of the same compound?
Answer: Its value is 0.1%.

Question: And the “Percentage of original 59Fe dose, Urine” value (cat intestine [5]; intrajejunal, after 4 hours)?
Answer: The value was 0.01%.

Question: And the “Percentage of original 59Fe dose, Reticuloendothelial System (Bone Marrow)” value (cat intestine [5]; intrajejunal, after 4 hours, estimated)?
Answer: The value was about 60%.

Question: What about the “iron removed from the iron complex by apotransferrin” value (apotransferrin) of the same compound?
Answer: Its value is “over 90%”.

Question: And the “Amount of complex entering erythrocytes” value (human erythrocytes [6])?
Answer: Its value is 250 n.mole.

Question: What about the “Relative Iron Uptake” value (rat jejunal sac; [8]) of the same compound?
Answer: Its value is 37.

Question: And the “Partition Coefficient, Kpart” value ([1]; n-octanol / 20 mM tris hydrochloride pH 7.4, 20° C., 10^-4 M)?
Answer: Its value is 1.06.

Question: Which “Relative Iron Uptake” value (rat jejunal sac) does the source give for `O=C([O-])[C@H](O)[C@@H](O)[C@H](O)[C@H](O)CO.O=C([O-])[C@H](O)[C@@H](O)[C@H](O)[C@H](O)CO.[Fe+2]` [Fe^II gluconate] here?
Answer: The value was 1.6.

Question: What does the source list for `Cn1cccc([O-])c1=O.Cn1cccc([O-])c1=O.Cn1cccc([O-])c1=O.[Fe+3]` [3:1 iron (III) complex of 3-hydroxy-1-methylpyrid-2-one]?
Answer: Amount of complex entering erythrocytes (human erythrocytes [3]): 60 n.mole; Partition Coefficient, Kpart, Iron complex [Fe^III-(compound)3] [1, 7]: 0.10

Question: With `CCn1ccc(=O)c([O-])c1C.CCn1ccc(=O)c([O-])c1C.CCn1ccc(=O)c([O-])c1C.[Fe+3]` [3:1 iron (III) complex of 1-ethyl-3-hydroxy-2-methylpyrid-4-one] as the compound, how does the “iron removed from the iron complex by apotransferrin” value (apotransferrin) read?
Answer: The value was 55%.

Question: What about the “Amount of complex entering erythrocytes” value (human erythrocytes [3]) of the same compound?
Answer: The value was 20 n.mole.

Question: What about the “Partition Coefficient, Kpart” value [1, 7] of the same compound?
Answer: The value was 0.03.

Question: Which logD at 100 µM [1, 7] does the source give for `CC(C)n1cccc(O)c1=O` [3-hydroxy-1-(1'-methylethyl)-pyrid-2-one, 3-hydroxy-1-(1'-methylethyl)pyrid-2-one] here?
Answer: Its logD at 100 µM is 0.491.

Question: With `Cn1cccc(O)c1=O` [3-hydroxy-1-methylpyrid-2-one] as the compound, how does the logD at 100 µM [1, 7] read?
Answer: Its logD at 100 µM is -0.357.

Question: With `Cc1c(O)c(=O)ccn1C(C)C` [3-Hydroxy-2-methyl-1-(1'-methylethyl)pyrid-4-one] as the compound, how does the logD at 100 µM [1, 9] read?
Answer: Its logD at 100 µM is -0.0223.

Question: Which results are given for `CCCn1cccc([O-])c1=O.CCCn1cccc([O-])c1=O.CCCn1cccc([O-])c1=O.[Fe+3]` [3:1 iron (III) complex of 3-hydroxy-1-propylpyrid-2-one]?
Answer: Amount of complex entering erythrocytes (human erythrocytes [3]): 710 n.mole; Partition Coefficient, Kpart, Iron complex [Fe^III-(compound)3] [1, 7]: 6.20
